Laboratory results: US7968558B2, “Amidine derivatives of 2-heteroaryl-quinazolines and quinolines; potent analgesics and anti-inflammatory agents” (Rottapharm S.p.A., priority 2006, dated 2011)
Counter-ions that a name gives are not always drawn.

What was measured:
[1] = test system: IL-1β induced PGE2 production; test: PGE2 production induced by IL-1β in chondrocyte cell culture; assay type: cell-based, rabbit; settings: at 10 μM
Description: (§1) Conversely, compounds of the invention are able to inhibit, at micromolar concentration, IL-1β induced PGE2 production in cellular systems. This inhibition effect on the production of the pro-inflammatory mediator PGE2, instead of to be ascribed to a direct COX-2 inhibition, as happens with Celecoxib and other COX-2 inhibitors, is in this case due to inhibition of cytokine induced COX-2 expression as proven in cellular systems.
(§2) Effectiveness in inhibition of PGE2 production induced by IL-1β in chondrocyte cell culture, as well as inhibition in IL-1β induced COX-2 expression in SW1353 human chondrosarcoma cell line, is summarized in Table 2, for representative compounds of the invention.

COX-2 expression = test: IL-1β induced COX-2 expression in SW1353 human chondrosarcoma cell line; assay type: cell-based; settings: at 10 μM
Description: as §1, §2

IL-1 production = IL-1 production in IL-1 stimulated human chondrosarcoma cell line; assay type: cell-based; settings: Compound concentration is 10 μM
Description: (§3) The compounds of the invention have been found effective in interfering with cytokine production in several cell lines, representative examples of this effect are reported in Table 3, for two representative cytokines, in IL-1 stimulated human chondrosarcoma cell line.

IL-6 production = IL-6 production in IL-1 stimulated human chondrosarcoma cell line; assay type: cell-based; settings: Compound concentration is 10 μM
Description: as §3

[2] = test system: Zymosan-induced mechanical hyperalgesia; test: Zymosan-induced mechanical hyperalgesia (Randall-Selitto); assay type: in vivo, rat
Method: (§4) The interplantar injection of Zymosan-induced mechanical hyperalgesia was used as a model of inflammatory pain (Meller, Neuropharmacology, 1994, 33, 1471-1478). In this model, typically a male Sprague-Dawley or Wistar rat (200-250 g) receives an interplantar injection of 3 mg/100 μl zymosan into one hind paw. A marked inflammation occurs in this hind paw. Drugs are administered orally for evaluation of efficacy, 30 min. before the inflammatory insult. The hyperalgesia induced by zymosan administration was evaluated using the Randall-Selitto method (Arch. Int. Pharmacodyn., 1957, 111, 409). The quantitation of the analgesic effect is achieved by an analgesimeter, which consist in applying to the inflamed paw an increasing weight (from 130-140 g up to 500 g). The difference in the mechanical pain threshold between the basal value (generally 230-250 g) and the one tolerated by the animals treated with the drug, determined 4 hours after the inflammatory challenge, is defined as mechanical hyperalgesia.
(§5) Mechanical hyperalgesia is expressed for the compounds of the invention as ED50, which is the dose of the administered compound able to increase the pain threshold by 50% in comparison with the group of control animals. The corresponding ED100, representing the dose able of reducing of 100% the pain threshold, can be calculated for those cases where there is a linear dose-response relationship. In vivo anti-inflammatory effect exerted by the compound of the invention can be assessed in the same Zymosan induced inflammation test described above, by measuring the volume of the oedema induced by the inflammatory agent. The oedema was evaluated as the increase in the volume of the Zymosan injected paw within a time of 0-2 hrs. The measurements of the variation of the oedema volume of the paw were recorded using hydroplethysmometer, which consists of two plastic cuvettes containing a surfactant liquid, the larger one being used for immersion of the paw, connected to the smaller one which contains a trans-ducer capable of recording small displacements of the volume used for the measure. The paw is immersed in the cuvettes up to the tibiotarsal joint. The volume of the liquid displaced is proportional to the extent of the inflammation. The efficacy of the compounds of the invention in preventing oedema formation is expressed as ED30, and is measured 2 hours after the inflammatory challenge, and represents the dose able of reducing of 30%, the Zymosan induced paw volume increase in comparison to control animals (animals treated with Zymosan but treated with only distilled water instead of the testing compound). The corresponding ED50, representing the dose able of reducing of 50% the zymosan induced paw volume increase, can be calculated for those cases where there is a linear dose-response relationship.
(§6) In both the experiments, for each test compound, at least three doses were used, with 10 animals per group. Compounds of the invention were tested at 10, 20 and 40 mg/Kg.

[3] = test system: Zymosan induced paw volume increase; test: Zymosan-induced paw oedema; assay type: in vivo, rat
Method: as §4, §5, §6

CFA-induced hyperalgesia = test: CFA model of chronic inflammatory pain; assay type: in vivo, rat
[4] = test system: mechanical hyperalgesia associated with STZ-induced diabetes; test: STZ-induced diabetes mechanical hyperalgesia (neuropathic pain); assay type: in vivo, rat
Method: Streptozotocin (STZ)-induced diabetes in the rat has been increasingly used as a model of painful diabetic neuropathy to assess the efficacies of potential analgesic agents (C. Courteix, Pain 1993, 53, 81-8). The compounds of the invention were tested for efficacy in reducing mechanical hyperalgesia associated with STZ-induced diabetes in the rat, according to the experimental model as described by the literature. Diabetes was produced with the injection of a single dose (75 mg/Kg i.p.) of STZ. In the following four weeks after the induction of diabetes the clinical symptoms (weight, body and skin temperature, motility and hyperglycemia) progressively developed by the animals, are strictly monitored. After four weeks, the scores obtained in diabetic rats to various pain stimuli (in particular mechanical stimuli) were grater than those in normal rats, indicating hyperalgesia. The hyperalgesia induced by diabetes was evaluated using the Randall-Selitto method as above described, and quantitated using the analgesimeter. Also in this case, the difference in the mechanical pain threshold between the basal value (generally 230-250 g) and the one tolerated by the animals treated with the drug, is defined as mechanical hyperalgesia. The compounds of the invention were administered i.p. (solution, Tween 80, 10% in saline) at different doses, and mechanical hyperalgesia was measured at the reported time, as maximum percent effect (MPE) which represents the difference (%) in pain threshold between the animals treated with the drug and the controls that received only the vehicle, compared with the weight borne by naïf non-diabetic controls. A 100% protection means that the diabetic animals treated with the compound can tolerate the same stimulus (weight) as the naïf non-diabetic animals. MPE higher than 100% means that the diabetic animal treated with the compound can tolerate stimuli (weight) higher than the control non-diabetic animals (hypoalgesia).

[5] = test system: acetic acid-induced abdominal writhes; test: Acetic acid-induced writhing test; assay type: in vivo, mice; settings: for MPE (%): 30 min. before acetic acid
Method: With the aim of assessing whether the compounds of the invention are able to inhibit responses to peritoneal irritation-induced visceral pain, the acetic acid-induced writhing assay was used in mice to determine the degree of anti-nociception.
The writhing test is a model of inflammatory pain that has long been used as a screening tool for evaluation of analgesic and anti-inflammatory agents (HDJ Collier, B. J. Pharmacol Chemother., 1968, 32, 295-310). The test was performed inducing nociception by an i.p. injection of acetic acid 1%, 0.1 mL/10 g of body weight. Mice were pre-treated (subcutaneously, s.c., three different doses: 3, 10, 30 mg/Kg) with the tested compounds 30 min. before acetic acid injection, while control animals received a similar volume of saline solution. A group of mice was treated with Paracetamol (200 mg/Kg, s.c.) as reference drug. The number of abdominal writhes (full extension of both hind paws) was cumulatively counted every 5 minutes over a period of 20 min. immediately after the acetic acid injection. The anti-nociceptive activity was expressed as inhibition of abdominal writhes as maximum percent effect (MPE), which represents the difference (%) in pain threshold between the animals treated with the drug and the ones that received only the vehicle.

## CC(=N)Nc1ccc2nc(-c3ccc4c(c3)OCO4)ccc2c1 [Example 2, N-[2-(1,3-benzodioxol-5-yl)quinolin-6-yl]acetamidine dihydrochloride]
[1]
  Effects on PGE2 production in rabbit Chondrocyte culture, % at 10 μM: 70% at 10 μM
COX-2 expression
  Inhibition of COX-2 expression in SW1353 human chondrosarcoma cell line, % at 10 μM: 59% at 10 μM
IL-1 production
  Inhibition (%) of IL-1 production: 45%
IL-6 production
  Inhibition (%) of IL-6 production: 78%
[2]; Rattus norvegicus, read-out: Analgesia ED50
  ED50: 10.7 mg/kg
[2]; oral, calculated from linear dose-response
  Analgesia ED100: 22 mg/kg
[3]; Rattus norvegicus, po, read-out: Oedema Reduction ED50
  ED50: 98 mg/kg
[3]; oral, 2 hours after challenge
  Oedema Reduction ED30: 15.0 mg/kg
CFA-induced hyperalgesia; 3 mg/Kg i.p.
  MPE 0.5 hrs.: 36%
  MPE 1.5 hrs.: 40%
  MPE 3 hrs.: 7%
CFA-induced hyperalgesia; 10 mg/Kg i.p.
  MPE 0.5 hrs.: 94%
  MPE 1.5 hrs.: 34%
  MPE 3 hrs.: 11%
  MPE 24 hrs.: 13%
CFA-induced hyperalgesia; 30 mg/Kg i.p.
  MPE 0.5 hrs.: 188%
  MPE 1.5 hrs.: 81%
  MPE 3 hrs.: 34%
  MPE 24 hrs.: 9%
[4]; 3 mg/Kg i.p.
  MPE 0.5 hrs.: 32%
  MPE 1.5 hrs.: 75%
  MPE 3 hrs.: 8%
[4]; 10 mg/Kg i.p.
  MPE 0.5 hrs.: 76%
  MPE 1.5 hrs.: 107%
  MPE 3 hrs.: 13%
[4]; 30 mg/Kg i.p.
  MPE 0.5 hrs.: 151%
  MPE 1.5 hrs.: 124%
  MPE 3 hrs.: 93%
[5]; 3 mg/Kg s.c.
  MPE (%): 59%
[5]; 10 mg/Kg s.c.
  MPE (%): 61%
[5]; 30 mg/Kg s.c.
  MPE (%): 57%
[5]; Mus musculus, sc
  ED50: < 3 mg/kg
